Measured values published in PMC12386934, “Characteristics and Potential of KSL, KSL-W, and Dadapin-1 Antimicrobial Peptides for Preventing Infections of Orthopedic Prosthetic Devices: Identifying the Most Robust Candidate” (International Journal of Molecular Sciences, 2025).

System: osteoblast-like MG63 cells
Assay: LDH cytotoxicity assay on osteoblast-like cells
Assay type: cell-based, human
Settings: 1% Tween-20, Positive Control, 24 h, mean, SD ± 4.2%
Procedure: MG63 cells (ATCC, Rockville, MD, USA) were thawed from a frozen stock and cultured in DMEM (11885-084, Thermo Fisher Scientific, Segrate, Italy) supplemented with non-inactivated 10% fetal bovine serum (FBS, F7524, Sigma-Aldrich, Milan, Italy) and 100× Penicillin/Streptomycin solution (P/S, 10,000 units penicillin and 10 mg streptomycin/mL, P4333, Sigma-Aldrich, Milan, Italy), under standard culture conditions (i.e., at 37 °C, in a humidified atmosphere with 5% CO2). Cells were regularly subcultured 2–3 times a week by using TrypLE Select 1× (GIBCO, Thermo Fisher Scientific, Segrate, Italy).
A suspension of MG63 cells was prepared in complete DMEM at a concentration of 5 × 10^4 cells/mL. […]
Cytotoxicity was assessed by measuring the release of lactate dehydrogenase (LDH) from damaged cells by the LDH Cytotoxicity Assay (ab197004, Abcam, Cambridge, UK), strictly following the instructions of the manufacturer. […] After 10 min shaking, the plate was read in fluorescence (excitation: 535 nm; emission 587 nm) by an Infinite 200 PRO mod. M PLEX multifunction plate reader (Tecan Group Ltd., Männedorf, Switzerland). […]
Data in relative fluorescence units (RFU) from the investigation on KSL-W suppression of S. aureus cytotoxicity were processed as follows. […]

Substance: Tween-20
- cytotoxicity (LDH, % of Lysate Control): 50.3%
